Data as given in patent US20260258057A1, “CRYSTAL OF BORATE DERIVATIVE, METHOD FOR PREPARING SAME, AND USE THEREOF” (Reistone Biopharma Company Limited, priority 2022, published 2026).

Experiments:
[1] = Stability test I of crystal form A (temperature and humidity; HPLC and XRPD); assay type: physicochemical
Method: (§1) 5. High performance liquid chromatography (HPLC) described in the stability test of the crystal form A of the present disclosure is determined on Agilent 1260 Infinity II under the following HPLC conditions: chromatographic column of Agilen XDB C18 5 μm 4.6×250 mm; mobile phase of A—0.05% TFA (in water), and B—ACN; flow rate of 1.0 ml/min; wavelength of 220 nm.
It is determined whether temperature and humidity have an influence on the stability of crystal form A of the compound of formula I.
The crystal form A was placed in a stabilizing chamber for accelerated stability tests under a series of temperature and humidity combinations. After being placed for different days under various temperature and humidity conditions, the samples were taken out and compared with the initial crystal form A. The content of the compound of formula I was determined by high performance liquid chromatography, and XRPD detection was performed.

[2] = Stability test II of crystal form A (light; HPLC and XRPD); assay type: physicochemical
Method: as §1
It is determined whether light has an influence on the stability of crystal form A of the compound of formula I.
The crystal form A was placed in a light stabilizing chamber, and taken out after reaching ICH strength. The resulting solid was compared with the initial crystal form A. The content of the compound of formula I was determined by high performance liquid chromatography, and XRPD detection was performed.

[3] = Dynamic vapor sorption (DVS) hygroscopicity; assay type: physicochemical
Excerpt: The ‘9103 Guidelines for Hygroscopicity of Drugs’ in Volume IV of the 2015 edition of Chinese Pharmacopoeia describes the characteristics of hygroscopicity and defines the weight gain by hygroscopicity as follows, • deliquescent: absorbing sufficient moisture to form a liquid; • extremely hygroscopic: the weight gain by hygroscopicity being no less than 15%; • hygroscopic: the weight gain by hygroscopicity being less than 15% but not less than 2%; • slightly hygroscopic: the weight gain by hygroscopicity being less than 2% but not less than 0.2%; • no or almost no hygroscopic: the weight gain by hygroscopicity being less than 0.2%.
The detection is performed using SMS Intrinsic PLUS at 25° C., with humidity change of 50%-0%-90% with a step size of 10%, in which the criteria for judging is that the mass change dM/dT for each gradient is less than 0.0002%, TMAX is 360 min, and two cycles are performed.

[4] = test system: IL-23 secretion in DC cells; experiment: Inhibition of Zymosan-stimulated IL-23 secretion in DC cells differentiated from human mononuclear cells; assay type: cell-based; conditions: Zymosan 200 μg/ml, 24 hours, ELISA
Method: Day 0: Mononuclear cells were isolated from fresh human peripheral blood and purified, and then resuspended in RPMI-1640 complete medium. When differentiation into DC cells took place, IL-4 at a concentration of 50 ng/ml and GM-CSF at 100 ng/ml were added to the medium, and the cells were cultured at a density of 1×10^6 cells/mL in a culture dish with a diameter of 100 mm for differentiation in an incubator at 37° C. with a carbon dioxide concentration of 5%. Day 3: Half the volume of RPMI complete medium was replaced with fresh RPMI complete medium, and the concentrations of IL-4 and GM-CSF were maintained at 50 ng/ml and 100 ng/ml respectively. Day 6: Non-adherent cells (DC cells) in the culture dish were collected and washed with PBS. The washed DC cells were resuspended with RPMI complete medium at a density of 1×10^6 cells/mL. Then, 1×10^5 DC cells were added to each well of the 96-well cell culture plate and pre-incubated for 1 hour with different dilutions of the compounds to be tested (or DMSO blank negative control at an equivalent concentration), followed by addition of 200 μg/ml of TLR2 agonist Zymosan to stimulate the DC cells for 24 hours. Day 7: After the DC cells were stimulated by Zymosan for 24 hours, the supernatant in each well of the 96-well plate was collected and detected by ELISA for the concentration of IL-23.

[5] = test system: imiquimod-induced mouse model of psoriasis; experiment: Imiquimod-induced psoriasis suppression assay; assay type: in vivo, Balb/c female mice; design: key to Erythema score, Mean / Psoriasis score, Mean / Thickness score, Mean: 0-5 scale, higher = more severe; key to Total clinical score, Mean: sum of 0-5 component scores; higher = more serious disease; conditions: for Ratio of spleen to body weight, Mean: Day 7, percentage of spleen to body weight; for Erythema score, Mean / Psoriasis score, Mean / Thickness score, Mean: Days 1-7; for Total clinical score, Mean: Days 1-7, endpoint of the experiment; for Effect on clinical score at the endpoint of the experiment / Effect on the ratio of spleen to body weight / Effect on the increase in skin thickness: Compound A 0.03%, versus model group; for Effect on clinical score at the endpoint of the experiment: each dose of Compound I (0.01%, 0.03%, 0.1%); for Effect on the ratio of spleen to body weight: three dose groups of Compound I; for Effect on the increase in skin thickness: Compound I low and high dose groups
Excerpt: An appropriate amount of Compound I was formulated into an ointment with the following components: 0.1% of Compound I, 9% of hexanediol, 78.8% of white petrolatum, 5% of paraffin, 7% of glyceryl mono- and di-stearate, and 0.1% of dihydroxybutyl toluene, which were mechanically stirred until an ointment was formed.
7-Week-old Balb/c female mice were used and the hair on their back in an area of 2 cm×3 cm was shaved the day before the experiment. On Days 1-7 of the experiment, the test compounds were applied on the skin, and after 6 hours, imiquimod (IMQ) ointment (Aldara (5%)) was continuously applied to the back skin of mice for 7 days, so as to establish a mouse model of psoriasis, while the control group was given the same dose of petrolatum ointment. On Days 3, 5 and 7, the severity of skin inflammation was assessed, including measurement of skin thickness, crusting and erythema, scored on a 5-point scale (0-5) respectively. The total score was used to assess the severity of skin inflammation. On Day 7 of the experiment, the spleen was collected and weighed, and the percentage of spleen to body weight was calculated to assess the immunosuppressive effect of the drug.
Normal control group, model control group, low, medium and high dose groups of Compound I (0.01%, 0.03% and 0.1%), and 0.03% reference Compound A group were set up in this experiment.
The total score of the degree of skin inflammation are the clinical score, the indicators of which are relatively subjective, and higher score indicated more serious disease. The degree of increase in skin thickness was an objective assessment indicator, and more increase in thickness indicated more serious disease. The ratio of spleen to body weight was an objective assessment indicator, and smaller ratio of spleen to body weight indicated stronger immunosuppressive effect of the drug.

TNF-α release in PBMCs = experiment: Inhibition of LPS-induced TNF-α release in peripheral blood mononuclear cells; assay type: cell-based; conditions: PBMC; LPS 0.1 ng/ml, 24 hours, ELISA
Method: Frozen PBMCs were thawed and detected by Trypan blue staining for cell viability and number. The thawed PBMCs were washed with RPMI1640 complete medium (RPMI1640+10% FBS+1% PS) and centrifuged, and the supernatant was discarded. The PBMCs were resuspended with RPMI1640 complete medium and the cell density was adjusted to 2×10^6 cells/mL. 2×10^5 PBMC cells were plated in a 96-well cell culture plate, and the compounds to be tested were added at different concentrations, in a 1:5 serial dilution of 9 concentrations starting from a maximum compound concentration of 100 μM, each in duplicate wells. LPS was added at a final concentration of 0.1 ng/ml, making a total volume of 200 μL. For the negative and positive controls, only LPS and DMSO were added to the negative control wells, while 1 μg/mL of dexamethasone as a positive control was added to the positive control wells in addition to cells and LPS. The cells were incubated for 24 hours in an incubator at 37° C. After completion of the incubation, 100 μL of cell culture supernatant was collected and detected by ELISA for the TNF-α level. 100 μL of CellTiter-Glo was added to the remaining cells in each well to detect the level of cell viability. The IC50 values of inhibition on TNF-α release by the compounds were calculated.

PDE4B1 enzyme = target: T1, PDE4B1 enzyme (Homo sapiens, UniProt Q07343); experiment: In vitro PDE4B enzyme activity detection assay (IMAP FP, FAM-cAMP substrate); assay type: biochemical; conditions: PDE4B1 0.04 nM, FAM-cAMP 0.1 μM, 25° C. 30 min
T1 construct: purchased BPS 60041
Method: A stock solution of the compound at a concentration of 10 mM was prepared in a test tube with 90% DMSO (10% water), and it was used to prepare a series of dilutions with a dilution factor of 1:5 and final concentrations starting from 100 μM and lowering to 0.05 nM.
0.2 μl of the solution of the compound was transferred into a 384-well reaction plate, and 0.2 μl of 100% DMSO was transferred into both the negative and positive controls. Then, 10 μl of 2×PDE4B1 enzyme solution (a final concentration of 0.04 nM) was added to the wells, and 10 μl of 1× reaction buffer (50 mM HEPES, pH 7.5, 0.0015% Brij-35) instead of the enzyme solution was added to the wells of the control without enzyme activity. The plate was centrifuged at 1,000 rpm for 1 min and incubated at room temperature for 15 min. Next, 10 μl of 2×FAM-CAMP substrate solution (a substrate final concentration of 0.1 μM) was added to each well of the 384-well reaction plate. The plate was centrifuged at 1,000 rpm for 1 min, and the reaction was carried out at 25° C. for 30 min. […]
After completion of the incubation, the RLU data were read and the inhibition rate was calculated. The IC50 value was calculated from the concentration-inhibition fitted curve, wherein the maximum value refers to the reading of the DMSO control and the minimum value refers to the reading of the control without enzyme activity.

T1 sequence (Q07343 whole entry): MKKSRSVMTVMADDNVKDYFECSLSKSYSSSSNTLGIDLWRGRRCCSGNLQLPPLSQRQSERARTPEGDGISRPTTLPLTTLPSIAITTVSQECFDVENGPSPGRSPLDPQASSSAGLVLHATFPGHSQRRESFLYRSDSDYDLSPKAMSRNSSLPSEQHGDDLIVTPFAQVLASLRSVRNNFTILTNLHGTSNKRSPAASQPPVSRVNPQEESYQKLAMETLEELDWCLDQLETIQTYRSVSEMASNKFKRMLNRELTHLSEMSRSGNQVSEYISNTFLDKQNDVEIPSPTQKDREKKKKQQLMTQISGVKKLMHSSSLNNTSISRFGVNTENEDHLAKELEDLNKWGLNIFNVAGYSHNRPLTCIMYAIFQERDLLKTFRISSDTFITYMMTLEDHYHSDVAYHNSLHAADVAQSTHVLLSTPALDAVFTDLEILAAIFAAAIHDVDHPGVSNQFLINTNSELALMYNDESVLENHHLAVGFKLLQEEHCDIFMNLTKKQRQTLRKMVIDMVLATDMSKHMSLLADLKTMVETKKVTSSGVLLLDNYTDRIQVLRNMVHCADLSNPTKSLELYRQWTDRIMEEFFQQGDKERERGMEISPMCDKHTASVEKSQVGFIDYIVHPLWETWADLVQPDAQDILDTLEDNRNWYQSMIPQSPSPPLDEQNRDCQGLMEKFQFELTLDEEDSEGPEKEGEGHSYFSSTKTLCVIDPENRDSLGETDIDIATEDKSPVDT

Structure (SMILES): COc1ccc(-c2cncc([C@@H]3COB(O)C3)n2)c2c1OC(C)(C)CC2 [crystal form A, (R)-4-(6-(8-methoxy-2,2-dimethylbenzodihydropyran-5-yl)pyrazin-2-yl)-1,2-oxaborocyclopentan-2-ol]
- Purity ([1]; 55 °C, 30% humidity, 18 days): 98.01%
- Purity ([1]; 55 °C, 79% humidity, 20 days): 97.40%
- Purity ([1]; 65 °C, 11% humidity, 20 days): 97.74%
- Purity ([1]; 65 °C, 50% humidity, 20 days): 96.16%
- Purity ([1]; 65 °C, 75% humidity, 20 days): 95.86%
- Purity ([1]; 70 °C, 11% humidity, 20 days): 97.33%
- Purity ([1]; 75 °C, 0% humidity, 20 days): 97.41%
- Purity ([1]; 75 °C, 50% humidity, 7 days): 96.57%
- Overall stability under temperature and humidity combinations ([1]; accelerated stability tests, Table 4 conditions): remains unchanged and exhibits good stability
- Purity ([1]; initial, 0 days): 97.99%
- Purity ([2]; At 0): 97.99%
- Purity ([2]; Light-0.5 ICH): 97.76%
- Purity ([2]; Light-1.0 ICH): 97.15%
- Weight gain by hygroscopicity ([3]; accelerated experimental conditions, 70% RH): approximately 0.15%
- Crystal form before and after DVS detection (XRPD) ([3]; after DVS, humidity 0% to 90% RH): does not change
- Weight gain by hygroscopicity ([3]; extreme conditions, 90% RH): approximately 0.70%
- Weight gain by hygroscopicity ([3]; normal storage conditions, 25° C., 60% RH): approximately 0.08%

Structure (SMILES): O=C(Nc1c(Cl)cncc1Cl)c1ccc(OC(F)F)c(OCC2CC2)c1 [Roflumilast]
- IC50 [4]: 12.9 nM

Structure (SMILES): CCCOc1cc(-c2cncc([C@@H]3COB(O)C3)c2)ccc1OC [Compound A, reference compound]
- Ratio of spleen to body weight, Mean ([5]; 0.03% applied on skin): 0.96
- Erythema score, Mean ([5]; 0.03% applied on skin): 3.33
- Psoriasis score, Mean ([5]; 0.03% applied on skin): 2.5
- Thickness score, Mean ([5]; 0.03% applied on skin): 2.5
- Total clinical score, Mean ([5]; 0.03% applied on skin): 8.33
- Effect on clinical score at the endpoint of the experiment [5]: significantly reduce
- Effect on the ratio of spleen to body weight [5]: no significant effect
- Effect on the increase in skin thickness [5]: no significant effect
- IC50 [4]: 0.61 nM

Structure (SMILES): COc1ccc(-c2cncc([C@@H]3COB(O)C3)n2)c2c1OC(C)(C)CC2 [Compound I, (R)-4-(6-(8-methoxy-2,2-dimethylbenzodihydropyran-5-yl)pyrazin-2-yl)-1,2-oxaborocyclopentan-2-ol]
- Ratio of spleen to body weight, Mean ([5]; 0.01% applied on skin): 0.64
- Erythema score, Mean ([5]; 0.01% applied on skin): 4
- Psoriasis score, Mean ([5]; 0.01% applied on skin): 3.13
- Thickness score, Mean ([5]; 0.01% applied on skin): 2.38
- Total clinical score, Mean ([5]; 0.01% applied on skin): 9.5
- Inhibitory effect on the increase in skin thickness compared with Compound A at the same dose ([5]; 0.03%): significantly higher
- Ratio of spleen to body weight, Mean ([5]; 0.03% applied on skin): 0.43
- Erythema score, Mean ([5]; 0.03% applied on skin): 3.86
- Psoriasis score, Mean ([5]; 0.03% applied on skin): 2.14
- Thickness score, Mean ([5]; 0.03% applied on skin): 1.57
- Total clinical score, Mean ([5]; 0.03% applied on skin): 7.57
- Ratio of spleen to body weight, Mean ([5]; 0.1% applied on skin): 0.31
- Erythema score, Mean ([5]; 0.1% applied on skin): 3.63
- Psoriasis score, Mean ([5]; 0.1% applied on skin): 1.38
- Thickness score, Mean ([5]; 0.1% applied on skin): 1.75
- Total clinical score, Mean ([5]; 0.1% applied on skin): 6.75
- Effect on clinical score at the endpoint of the experiment [5]: significantly reduce
- Effect on the ratio of spleen to body weight [5]: significantly reduce
- Effect on the increase in skin thickness [5]: significantly inhibit
- IC50 (TNF-α release in PBMCs): 0.055 nM
- IC50 (PDE4B1 enzyme): 0.17 nM
- IC50 [4]: 0.018 nM
